# Source: patent US8440628B2, “Medical compositions containing ghrelin” (Daiichi Sankyo Company, Limited, priority 2002, dated 2013)
# Experiments:
# Format in all cases: physicochemical
# [1] = Adsorption inhibiting effect of anti-adsorbents on human ghrelin in glass and polypropylene test tubes (Example 9); conditions: human ghrelin 1.0 μg/mL in 5% mannitol-0.05M glycine hydrochloride buffer (pH 3.5), anti-adsorbent None (control)
# Description: As the anti-adsorbent, the surfactant, that is, polyoxyethylene sorbitan monooleate (hereinafter, referred to as Tween® 80), and benzalkonium chloride were selected.
# The anti-adsorbent was added to this solution with 0.01% or 0.1% concentration.
# The human ghrelin concentrations of each solution were measured by HPLC method right after preparation, and these solutions were replaced in glass test tubes. After that, each solution were further replaced in new glass test tubes, and same operation was repeated for 5 and 10 times, then, the human ghrelin concentrations of each treated solution were measured by HPLC method. As a control, the solution not containing anti-adsorbent was examined.
# Same procedure was repeated by using test tube made by polypropylene instead of glass test tube.
# [2] = Stability of human ghrelin in pH-adjusted purified water at 25°C (Example 7); conditions: for Peak area ratio to total peak area: 25±2°C
# Description: Human ghrelin was dissolved in the purified water with about 0.03 μmol/mL (0.1 mg/mL). […] This solution was divided into quarter, and one portion was kept alone and the pH values of the remaining three portions were adjusted to pH 1.8 (with 17 mM of hydrochloric acid), pH 3.9 (with 0.20 mM of hydrochloric acid) and pH 7.8 (with 0.24 mM of sodium hydroxide) respectively, by adding along with hydrochloric acid or sodium hydroxide aqueous solution.
# [3] = Stability of human ghrelin in 0.1M HCl and Mcllvain buffer solutions of various pH at 25°C (Example 2, HPLC peak area ratio)
# Description: Human ghrelin was dissolved in the following aqueous solutions in the concentration of about 0.15 μmol/mL (0.5 mg/mL).
# 0.1M HCl aqueous solution (pH: 1.1)
# The pH was adjusted with 0.1M citric aqueous acid and 0.2M dibasic sodium phosphate aqueous solution.
# Each solution were stored at 25±2° C. for 8, 24, 48 and 72 hours respectively, and the obtained solutions were detected by HPLC analysis in comparison to the solutions before storage. […] No significant changes of pH in solution before storage and after storage were observed.
# [4] = human ghrelin 0.5 mg/mL in 0.1M HCl aqueous solution, pH 1, 25±2°C, 8 hr. after
# [5] = human ghrelin 0.5 mg/mL in 0.1M HCl aqueous solution, pH 1, 25±2°C, 24 hr. after
# [6] = human ghrelin 0.5 mg/mL in 0.1M HCl aqueous solution, pH 1, 25±2°C, 48 hr. after
# [7] = human ghrelin 0.5 mg/mL in 0.1M HCl aqueous solution, pH 1, 25±2°C, 72 hr. after
# [8] = human ghrelin 0.5 mg/mL in 0.1M HCl aqueous solution, pH 1, 25±2°C, before storage
# [9] = human ghrelin 0.5 mg/mL in Mcllvain buffer, pH 2, 25±2°C, 8 hr. after
# [10] = human ghrelin 0.5 mg/mL in Mcllvain buffer, pH 2, 25±2°C, 24 hr. after
# [11] = human ghrelin 0.5 mg/mL in Mcllvain buffer, pH 2, 25±2°C, 48 hr. after
# [12] = human ghrelin 0.5 mg/mL in Mcllvain buffer, pH 2, 25±2°C, 72 hr. after
# [13] = human ghrelin 0.5 mg/mL in Mcllvain buffer, pH 2, 25±2°C, before storage
# [14] = human ghrelin 0.5 mg/mL in Mcllvain buffer, pH 3, 25±2°C, 8 hr. after
# [15] = human ghrelin 0.5 mg/mL in Mcllvain buffer, pH 3, 25±2°C, 24 hr. after
# [16] = human ghrelin 0.5 mg/mL in Mcllvain buffer, pH 3, 25±2°C, 48 hr. after
# [17] = human ghrelin 0.5 mg/mL in Mcllvain buffer, pH 3, 25±2°C, 72 hr. after
# [18] = human ghrelin 0.5 mg/mL in Mcllvain buffer, pH 3, 25±2°C, before storage
# [19] = human ghrelin 0.5 mg/mL in Mcllvain buffer, pH 4, 25±2°C, 8 hr. after
# [20] = human ghrelin 0.5 mg/mL in Mcllvain buffer, pH 4, 25±2°C, 24 hr. after
# [21] = human ghrelin 0.5 mg/mL in Mcllvain buffer, pH 4, 25±2°C, 48 hr. after
# [22] = human ghrelin 0.5 mg/mL in Mcllvain buffer, pH 4, 25±2°C, 72 hr. after
smiles,measurement,setting,value
CCCCCCCC(=O)OC[C@H](NC(=O)[C@H](CO)NC(=O)CN)C(=O)N[C@@H](Cc1ccccc1)C(=O)N[C@@H](CC(C)C)C(=O)N[C@@H](CO)C(=O)N1CCC[C@H]1C(=O)N[C@@H](CCC(=O)O)C(=O)N[C@@H](Cc1c[nH]cn1)C(=O)N[C@@H](CCC(N)=O)C(=O)N[C@@H](CCCNC(=N)N)C(=O)N[C@H](C(=O)N[C@@H](CCC(N)=O)C(=O)N[C@@H](CCC(N)=O)C(=O)N[C@@H](CCCNC(=N)N)C(=O)N[C@@H](CCCCN)C(=O)N[C@@H](CCC(=O)O)C(=O)N[C@@H](CO)C(=O)N[C@@H](CCCCN)C(=O)N[C@@H](CCCCN)C(=O)N1CCC[C@H]1C(=O)N1CCC[C@H]1C(=O)N[C@@H](C)C(=O)N[C@@H](CCCCN)C(=O)N[C@@H](CC(C)C)C(=O)N[C@@H](CCC(N)=O)C(=O)N1CCC[C@H]1C(=O)N[C@@H](CCCNC(=N)N)C(=O)O)C(C)C [Human ghrelin],Human ghrelin concentration of the solution (Initial Conc. = 100),"[1]; Glass tube, replaced 5 times",0
same,Human ghrelin concentration of the solution (Initial Conc. = 100),"[1]; Glass tube, replaced 10 times",0
same,Human ghrelin concentration of the solution (Initial Conc. = 100),[1]; Initial Conc.,100
same,Human ghrelin concentration of the solution (Initial Conc. = 100),"[1]; Polypropylene tube, replaced 5 times",51
same,Human ghrelin concentration of the solution (Initial Conc. = 100),"[1]; Polypropylene tube, replaced 10 times",19
same,Peak area ratio to total peak area,"[2]; human ghrelin 0.1 mg/mL in purified water adjusted to pH 1.8 with hydrochloric acid, 1 day after",97.68%
same,Peak area ratio to total peak area,"[2]; human ghrelin 0.1 mg/mL in purified water adjusted to pH 1.8 with hydrochloric acid, 1 day after, listed as human ghrelin",less than 98%
same,Peak area ratio to total peak area,"[2]; human ghrelin 0.1 mg/mL in purified water adjusted to pH 1.8 with hydrochloric acid, 3 days after",95.01%
same,Peak area ratio to total peak area,"[2]; human ghrelin 0.1 mg/mL in purified water adjusted to pH 1.8 with hydrochloric acid, before storage",99.16%
same,Peak area ratio to total peak area,"[2]; human ghrelin 0.1 mg/mL in purified water adjusted to pH 3.9 with hydrochloric acid, 1 day after",99.19%
same,Peak area ratio to total peak area,"[2]; human ghrelin 0.1 mg/mL in purified water adjusted to pH 3.9 with hydrochloric acid, 3 days after",99.14%
same,Peak area ratio to total peak area,"[2]; human ghrelin 0.1 mg/mL in purified water adjusted to pH 3.9 with hydrochloric acid, before storage",99.21%
same,Peak area ratio to total peak area,"[2]; human ghrelin 0.1 mg/mL in purified water adjusted to pH 7.8 with sodium hydroxide, 1 day after",94.78%
same,Peak area ratio to total peak area,"[2]; human ghrelin 0.1 mg/mL in purified water adjusted to pH 7.8 with sodium hydroxide, 1 day after, listed as human ghrelin",less than 98%
same,Peak area ratio to total peak area,"[2]; human ghrelin 0.1 mg/mL in purified water adjusted to pH 7.8 with sodium hydroxide, 3 days after",87.84%
same,Peak area ratio to total peak area,"[2]; human ghrelin 0.1 mg/mL in purified water adjusted to pH 7.8 with sodium hydroxide, before storage",98.85%
same,Peak area ratio to total peak area,"[2]; human ghrelin 0.1 mg/mL in purified water, pH 4.7 (not adjusted), 1 day after",99.12%
same,Peak area ratio to total peak area,"[2]; human ghrelin 0.1 mg/mL in purified water, pH 4.7 (not adjusted), 3 days after",98.94%
same,Peak area ratio to total peak area,"[2]; human ghrelin 0.1 mg/mL in purified water, pH 4.7 (not adjusted), before storage",99.20%
same,pH of the solution,"[2]; human ghrelin dissolved in purified water, about 0.03 μmol/mL (0.1 mg/mL)",4.7
same,Peak area ratio to total peak area,[3]; [4],94.40%
same,pH observed,[3]; [4],1.2
same,Peak area ratio to total peak area,[3]; [5],86.00%
same,pH observed,[3]; [5],1.2
same,Peak area ratio to total peak area,[3]; [6],74.62%
same,pH observed,[3]; [6],1.2
same,Peak area ratio to total peak area,[3]; [7],65.04%
same,pH observed,[3]; [7],1.2
same,Peak area ratio to total peak area,[3]; [8],98.89%
same,pH observed,[3]; [8],1.1
same,Peak area ratio to total peak area,[3]; [9],98.82%
same,pH observed,[3]; [9],2.0
same,Peak area ratio to total peak area,[3]; [10],98.24%
same,pH observed,[3]; [10],2.0
same,Peak area ratio to total peak area,[3]; [11],97.35%
same,pH observed,[3]; [11],2.0
same,Peak area ratio to total peak area,"[3]; human ghrelin 0.5 mg/mL in Mcllvain buffer, pH 2, 25±2°C, 48 hr. after, listed as human ghrelin",less than 98%
same,Peak area ratio to total peak area,[3]; [12],96.46%
same,pH observed,[3]; [12],2.0
same,Peak area ratio to total peak area,[3]; [13],99.07%
same,pH observed,[3]; [13],2.0
same,Peak area ratio to total peak area,[3]; [14],98.98%
same,pH observed,[3]; [14],3.1
same,Peak area ratio to total peak area,[3]; [15],98.77%
same,pH observed,[3]; [15],3.1
same,Peak area ratio to total peak area,[3]; [16],98.40%
same,pH observed,[3]; [16],3.1
same,Peak area ratio to total peak area,[3]; [17],98.03%
same,pH observed,[3]; [17],3.1
same,Peak area ratio to total peak area,[3]; [18],99.07%
same,pH observed,[3]; [18],3.0
same,Peak area ratio to total peak area,[3]; [19],99.07%
same,pH observed,[3]; [19],4.0
same,Peak area ratio to total peak area,[3]; [20],98.92%
same,pH observed,[3]; [20],4.0
same,Peak area ratio to total peak area,[3]; [21],98.69%
same,pH observed,[3]; [21],4.0
same,Peak area ratio to total peak area,[3]; [22],98.44%
same,pH observed,[3]; [22],4.0
same,Peak area ratio to total peak area,"[3]; human ghrelin 0.5 mg/mL in Mcllvain buffer, pH 4, 25±2°C, before storage",99.07%
